Results published in PMC11960843, “Exploration of the tunability of BRD4 degradation by DCAF16 trans-labelling covalent glues” (European journal of medicinal chemistry, 2024).

Assays:
BRD4BD1 = BRD4BD1 (Homo sapiens, UniProt O60885); experiment: BRD4 AlphaScreen competition assay (JQ1-biotin displacement), BRD4BD1; assay type: binding; conditions: read-out: IC50 BRD4BD1
BRD4BD2 [1] = target: T1, BRD4BD2 (Homo sapiens, UniProt O60885); experiment: BRD4 AlphaScreen competition assay (JQ1-biotin displacement), BRD4BD2; assay type: binding; conditions: read-out: IC50 BRD4BD2
[2] = target: T2, BRD4BD2-DCAF16 ternary complex (Homo sapiens, UniProt O60885+Q9NXF7); experiment: DDB1-DCAF16-BRD4BD2 TR-FRET ternary complex formation assay; assay type: biochemical; conditions: for TR-FRETmax (520 nm/490 nm ratio): 6 h degrader incubation
T2 construct: E3 ligase to bromodomain 2 (BRD4BD2); His6 (N); StrepII (N); Avi (N); made in house; host or cells: BRD4BD2: E. coli (pET100/D-TOPO)
T2 sequence (Q9NXF7 whole entry, other chains not shown): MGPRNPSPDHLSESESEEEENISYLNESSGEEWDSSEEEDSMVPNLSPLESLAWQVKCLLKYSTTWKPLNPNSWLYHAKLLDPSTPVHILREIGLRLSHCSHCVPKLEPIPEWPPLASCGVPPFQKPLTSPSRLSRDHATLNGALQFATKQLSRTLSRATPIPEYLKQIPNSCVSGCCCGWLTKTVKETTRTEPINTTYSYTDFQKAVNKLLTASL
Excerpt: To determine the relationship between covalent warheads and DCAF16 recruitment to BRD4BD2, we used a time-resolved fluorescence energy transfer (TR-FRET) assay to measure induced BRD4BD2-DCAF16 ternary complex formation (Fig. 3A).
Furthermore, we wanted to determine the kinetics of the BRD4BD2-DCAF16 interaction given its covalent nature. […] Additionally, to understand the relationship between ternary complex formation kinetics and warhead reactivity we measured the depletion of the covalent analogs in the presence of glutathione using MS (Table S2). […] Titrations of compounds to induce the DCAF16-BRD4BD complex were carried out by mixing 100 nM biotinylated BRD4BD2, 500 nM BODIPY-FL labeled DDB1ΔB-DCAF16 variants, and 2 nM terbium-coupled streptavidin (Invitrogen) in an assay buffer containing 50 mM HEPES pH 8.0, 200 mM NaCl, 0.1% Pluronic F-68 solution (Sigma), 0.5% bovine serum albumin (BSA) (w/v) and 1 mM TCEP. […] The TR-FRET signal of each data point was extracted by calculating the 520/490 nm ratio.

glutathione = experiment: GSH stability (glutathione reactivity) assay by LC-MS/MS; assay type: physicochemical; conditions: PBS containing 5 mM reduced glutathione; PBS + 5 mM GSH; extrapolated from 240 min assay
Excerpt: Furthermore, we wanted to determine the kinetics of the BRD4BD2-DCAF16 interaction given its covalent nature. […] Additionally, to understand the relationship between ternary complex formation kinetics and warhead reactivity we measured the depletion of the covalent analogs in the presence of glutathione using MS (Table S2). […].

[3] = as above; assay type: physicochemical; conditions: phosphate buffered saline (PBS) without glutathione, extrapolated from 240 min assay
BRD4BD2 [4] = target: T1, BRD4BD2; experiment: BRD4BD2-eGFP and mCherry flow reporter degradation assay, wild type K562 cells; conditions: for Dmax: K562, read-out: maximal degradation (Dmax/16h) of BRD4BD2, K562 cells, 16 h incubation
Description: This assay involves the co-expression of mCherry with BRD4BD1/2 fused to an enhanced green fluorescent protein (eGFP) tag, and the subsequent fluorescence measurement of BRD4BD1/2-eGFP normalized to mCherry as a readout for BRD4BD1/2 degradation. It allows for a quantitative, rapid, and facile screening of several MGDs, in a dose-and time-dependent manner. […] Thus, the BRD4BD2 stability system was used to test all subsequent GNE011 analogs in wild type and DCAF16−/− cells.
One day after infection, reporter cells were selected with puromycin at a concentration of 2 μg/mL.
K562 cells stably expressing degradation reporter were dosed with DMSO or degraders at various times and concentrations using D300e Digital Dispenser (HP). The fluorescent signal was quantified by flow cytometry (LSRFortessa flow cytometer, BD Biosciences) and analyzed using FlowJo (flow cytometry analysis software, BD Biosciences). The geometric mean of the eGFP and mCherry fluorescent signal for round and mCherry-positive cells was calculated. GFP expression was normalized to mCherry signal and drug treatments were compared to DMSO controls.

BRD4 [5] = target: T3, BRD4 (Homo sapiens, UniProt O60885); experiment: Western blot of BRD4 degradation, wild-type K562 cells; assay type: cell-based; set-up: an 11 amino acid peptide knock-in tag to a protein-of-interest using CRISPR insertion; endogenous in cells; conditions: wild-type K562, 1 μM, 16 h
Description: (§1) Western blotting was used to determine the degradation potencies of the covalent BRD4 degraders.
(§2) Cells were washed with PBS and lysed in RIPA lysis buffer (Thermo Fisher Scientific) with Halt Protease Inhibitor Cocktail (Thermo Fisher Scientific) and Benzonase (Sigma-Aldrich) for 20 min on ice. The insoluble fraction was removed by centrifugation, the protein concentration was quantified using a BCA protein assay kit (Thermo Fisher Scientific), and an equal amount of lysate was run on SDS–PAGE 4–12% Bis–Tris Protein Gels (Thermo Fisher Scientific) and then transferred to nitrocellulose membrane with a XCell II Blot Module Wet Tank Transfer System (Thermo Fisher Scientific). Membranes were blocked in Intercept (PBS) Blocking Buffer (LI-COR Biosciences) and incubated with primary antibodies overnight at 4 °C. The membranes were then washed in Tris-buffered saline with Tween-20 (TBS-T), incubated for 1 h with secondary IRDye-conjugated antibodies (LI-COR Biosciences) and washed three times in TBS-T for 5 min before near-infrared western blot detection on an Odyssey Imaging System (LI-COR Biosciences).

BRD4 [6] = target: T3, BRD4; experiment: Washout experiment, Western blot of BRD4 degradation in K562 cells; assay type: cell-based; set-up: an 11 amino acid peptide knock-in tag to a protein-of-interest using CRISPR insertion; endogenous in cells; conditions: K562, 1 μM, 4 h treatment, washout, 20 h compound-free vs 24 h no washout
Description: This experiment involves cell treatment and incubation with a ‘covalent’ compound, followed by a wash-step where the cells are washed and resuspended in compound-free cell media.
Cells were washed with PBS and lysed in RIPA lysis buffer (Thermo Fisher Scientific) with Halt Protease Inhibitor Cocktail (Thermo Fisher Scientific) and Benzonase (Sigma-Aldrich) for 20 min on ice. […] Membranes were blocked in Intercept (PBS) Blocking Buffer (LI-COR Biosciences) and incubated with primary antibodies overnight at 4 °C. The membranes were then washed in Tris-buffered saline with Tween-20 (TBS-T), incubated for 1 h with secondary IRDye-conjugated antibodies (LI-COR Biosciences) and washed three times in TBS-T for 5 min before near-infrared western blot detection on an Odyssey Imaging System (LI-COR Biosciences).

BRD4 [7] = target: T3, BRD4; experiment: Western blot of BRD4 degradation, DCAF16 KO K562 cells; assay type: cell-based; set-up: an 11 amino acid peptide knock-in tag to a protein-of-interest using CRISPR insertion; endogenous in cells; conditions: DCAF16 KO K562, 1 μM, 16 h
Description: as §1, §2

BRD4 [8] = target: T3, BRD4; experiment: BRD4-HiBiT assay, WT JURKAT cells; assay type: cell-based; set-up: an 11 amino acid peptide knock-in tag to a protein-of-interest using CRISPR insertion; endogenous in cells; host or cells: JURKAT, HiBiT-edited (wild type or DCAF16 knockout); conditions: 6 h
Description: (§3) Thereafter, we sought to characterize the BRD4 cellular degradation potencies in a dose-dependent manner at a shorter time point to minimize secondary effects. This was performed using the bioluminescent HiBiT-BRD4 assay, which consists of an 11 amino acid peptide knock-in tag to a protein-of-interest using CRISPR insertion. A complementary polypeptide (LgBiT) detects and interacts with all HiBiT tagged proteins, thereby reconstituting a luminescent NanoBiT enzyme, that can be quantified by its bioluminescence. WT and DCAF16 KO JURKAT cell lines expressing the BRD4-HiBiT system were generated to quantify dose-dependent BRD4 degradation after 6 h incubation (Fig. 4C).
(§4) After 6 h, the plates were subjected to Nano-Glo HiBiT Lytic detection system (Promega, #N3040) as described in manufacturer's manual. The assays were performed in biological triplicate. DC50 values were determined using a non-linear regression curve fit in GraphPad PRISM 9.5.1.

BRD4 [9] = target: T3, BRD4; experiment: BRD4-HiBiT assay, DCAF16 KO JURKAT cells; assay type: cell-based; set-up: an 11 amino acid peptide knock-in tag to a protein-of-interest using CRISPR insertion; endogenous in cells; host or cells: JURKAT, HiBiT-edited (wild type or DCAF16 knockout); conditions: 6 h
Description: as §3, §4

Cc1sc2c(c1C)C(c1ccc(C#CCN)cc1)=N[C@@H](CC(=O)OC(C)(C)C)c1nnc(C)n1-2 [GNE011, tert-butyl (S)-2-(4-(4-(3-aminoprop-1-yn-1-yl)phenyl)-2,3,9-trimethyl-6H-thieno[3,2-f][1,2,4]triazolo[4,3-a][1,4]diazepin-6-yl)acetate, reference compound]
IC50 (BRD4BD1): 11.2 nM | IC50 (BRD4BD2 [1]): 7.79 nM | TR-FRETmax (520 nm/490 nm ratio) [2]: 0.18 | half-life (glutathione): 11.3 h | half-life [3]: > 12.5 h | Dmax (BRD4BD2 [4]): ~50% | maximal degradation (Dmax/16h) of BRD4BD2 (BRD4BD2 [4]; K562 cells, 16 h incubation): 49% | BRD4 degradation by Western blot (in words) (BRD4 [5]): moderate degradation | BRD4 degradation after washout compared to no washout (in words) (BRD4 [6]): nearly a complete rescue

Cc1sc2c(c1C)C(c1ccc(C#CC(N)=O)cc1)=N[C@@H](CC(=O)OC(C)(C)C)c1nnc(C)n1-2 [MMH287, tert-butyl (S)-2-(4-(4-(3-amino-3-oxoprop-1-yn-1-yl)phenyl)-2,3,9-trimethyl-6H-thieno[3,2-f][1,2,4]triazolo[4,3-a][1,4]diazepin-6-yl)acetate]
IC50 (BRD4BD1): 12.9 nM | TR-FRETmax (520 nm/490 nm ratio) [2]: 0.15 | BRD4BD2-DCAF16 ternary complex formation / DCAF16 recruitment (in words) ([2]; time-dependent TR-FRET): almost no increase in ternary complex formation | half-life (glutathione): 6.33 h | half-life [3]: > 12.5 h | Dmax (BRD4BD2 [4]): 69% | DC50 (BRD4BD2 [4]; read-out: DC50 of BRD4BD2 degradation, K562 cells, 16 h incubation): 51 nM | BRD4 degradation by Western blot (in words) (BRD4 [5]): nearly complete BRD4 degradation | BRD4 degradation by Western blot in DCAF16 KO (in words) (BRD4 [7]): completely rescued by DCAF16 KO | BRD4 degradation after washout compared to no washout (in words) (BRD4 [6]): nearly a complete rescue | BRD4 degradation (in words) (BRD4 [8]): noticeable BRD4 degradation | BRD4 degradation in DCAF16 KO (in words) (BRD4 [9]): completely rescued by DCAF16 KO
